Values joined by “and” are separate entries in the source; they are usually repeats but may differ in a detail not shown here. Equal entries are not always repeated.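 Values below derive from 48-hour exposures of cells grown in 96-well plates, with endpoints linearly interpolated between the two concentrations bracketing the appropriate inhibition level. GI50 is the concentration that inhibits growth by half. TGI: concentration producing complete growth inhibition.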

One assay deals with SW-620 colon. The experiment in a line: NCI-60 cell line screen, 48 h.
As for `Cc1csc(Nc2nc(-c3cccc(Br)c3)nc(C(Cl)(Cl)Cl)n2)n1`, the GI50 is 3.29 µM and the TGI is greater than 100 µM.
Molecule `COc1c(OC)c(OC)c(C(=O)/C=C/c2ccccc2)c(OC)c1OC` registered a TGI of 31 µM.
Consider `NS(=O)(=O)c1ccc(N(/C=C/C(=O)C(F)(F)F)CC(=O)c2ccc(Cl)cc2)cc1`, for which the GI50 was 57 µM and the TGI is greater than 100 µM.
In the same order, the values of `CS(=O)(=O)CCCn1c(=O)c(Oc2ccc(F)cc2F)cc2cnc(NC3CCOCC3)nc21` are greater than 25 µM and greater than 25 µM.
In the same order, the values of `N#C/C=C(\c1ccc([N+](=O)[O-])cc1)n1nnc2cc(Cl)c(Cl)cc21` are 1.75 µM and 4.15 µM.
In the case of `CCN(CC)CCOc1ccc(/C=C2\CC3C4CC=C5C[C@@H](O)CC[C@]5(C)C4CC[C@]3(C)C2=O)cc1OC` (stereo partly drawn), the GI50 is 2.54 µM and the TGI is greater than 20.5 µM.
The molecule `O=C(CC(O)(C(F)(F)F)C(F)(F)F)c1cc(CC(=O)C(O)(C(F)(F)F)C(F)(F)F)cc(CC(=O)C(O)(C(F)(F)F)C(F)(F)F)c1` had a TGI greater than 10 µM.
As to `O=c1c2ccccc2sc2cccc(NCCCN3CCN(CCCNc4cccc5sc6ccccc6c(=O)c45)CC3)c12`, the TGI is greater than 100 µM.
For `Cc1cn2c(/C=C3\C(=O)Nc4ccc(O)cc43)c(-c3ccc(Cl)cc3)nc2s1`, the GI50 was 35.6 µM and the TGI is greater than 100 µM.
Turning to `CC1(C)OCCn2c1nc1c(N3CCOCC3)nc(-c3cnc(N)nc3)nc12`, the GI50 is 0.399 µM and the TGI is greater than 100 µM.
For the molecule `O=C(c1c(F)ccc(NS(=O)(=O)N2CC[C@@H](F)C2)c1F)c1c[nH]c2ncc(-c3cnc(C4CC4)nc3)cc12`, the GI50 was > 7.76 µM and 10.9 µM; the TGI is > 10 µM and 35 µM.
On to `COc1cc(-c2nn(-c3cccc(NC(=O)Nc4ccc(Cl)c(Cl)c4)c3)cc2-c2ccncc2)ccc1Cl`, for which the GI50 is 1.59 µM and the TGI is greater than 50 µM.
`Nc1nc(N)c(N=Nc2ccc([As](=O)(O)O)cc2)c(=O)[nH]1` gave a TGI greater than 100 µM.
Turning to `CCOC(=O)C(=Cc1cccc(Cl)c1)C(=O)OCC`, the GI50 is 2.03 µM and the TGI came to 4.1 µM.
Take `C=CC(=O)N1CCC(C2CCNc3c(C(N)=O)c(-c4ccc(Oc5ccccc5)cc4)nn32)CC1` (stereo not drawn): the GI50 was 31.8 µM and the TGI was greater than 100 µM.
On to `CCCCCCNC(=O)c1nc(-c2ccccc2)oc1Cc1ccc(OP(=O)(O)O)cc1`, for which the GI50 is 16.8 µM and the TGI was 33.4 µM.
The corresponding values for `Cc1ccc(/C=C/c2c(C(=O)/C=C/c3ccc(C(F)(F)F)cc3)c(C)nc3ccccc23)cc1` are 1.29 µM and 4.38 µM.
In the case of `CCCn1c(N)c(C(=O)N/N=C(/C)c2cc3cccc(OC)c3o2)sc1=S`, the GI50 was 19.2 µM and the TGI was greater than 100 µM.
As for `C=CCc1cccc(/C=N/NC(=O)CN2CCN(Cc3ccccc3)CC2)c1O`, the GI50 was 3.8 µM and the TGI is 17.1 µM.

In another assay the test system is MCF7 breast. The experiment in a line: NCI-60 cell line screen, 48 h.
For `Cc1csc(Nc2nc(-c3cccc(Br)c3)nc(C(Cl)(Cl)Cl)n2)n1`, the GI50 was 1.43 µM and the TGI was greater than 100 µM.
`COc1c(OC)c(OC)c(C(=O)/C=C/c2ccccc2)c(OC)c1OC` showed a TGI of 24.1 µM.
Consider `NS(=O)(=O)c1ccc(N(/C=C/C(=O)C(F)(F)F)CC(=O)c2ccc(Cl)cc2)cc1`, for which the GI50 was 15.8 µM and the TGI was 49.7 µM.
With `CS(=O)(=O)CCCn1c(=O)c(Oc2ccc(F)cc2F)cc2cnc(NC3CCOCC3)nc21`, the GI50 was greater than 25 µM and the TGI is greater than 25 µM.
Turning to `N#C/C=C(\c1ccc([N+](=O)[O-])cc1)n1nnc2cc(Cl)c(Cl)cc21`, the GI50 is 0.738 µM and the TGI came out at 3.32 µM.
In the same order, the values of `CCN(CC)CCOc1ccc(/C=C2\CC3C4CC=C5C[C@@H](O)CC[C@]5(C)C4CC[C@]3(C)C2=O)cc1OC` (stereo partly drawn) are 9.6 µM and 54.5 µM.
Turning to `O=C(CC(O)(C(F)(F)F)C(F)(F)F)c1cc(CC(=O)C(O)(C(F)(F)F)C(F)(F)F)cc(CC(=O)C(O)(C(F)(F)F)C(F)(F)F)c1`, the TGI is 9.82 µM.
Turning to `O=c1c2ccccc2sc2cccc(NCCCN3CCN(CCCNc4cccc5sc6ccccc6c(=O)c45)CC3)c12`, the TGI is greater than 100 µM.
As for `Cc1cn2c(/C=C3\C(=O)Nc4ccc(O)cc43)c(-c3ccc(Cl)cc3)nc2s1`, the GI50 was 14.2 µM and the TGI came out at 33.8 µM.
Take `CC1(C)OCCn2c1nc1c(N3CCOCC3)nc(-c3cnc(N)nc3)nc12`: the GI50 was 0.077 µM and the TGI was greater than 100 µM.
Regarding `O=C(c1c(F)ccc(NS(=O)(=O)N2CC[C@@H](F)C2)c1F)c1c[nH]c2ncc(-c3cnc(C4CC4)nc3)cc12`, the GI50 was > 9.13 µM and 10.1 µM; the TGI is > 10 µM and 44.5 µM.
Consider `COc1cc(-c2nn(-c3cccc(NC(=O)Nc4ccc(Cl)c(Cl)c4)c3)cc2-c2ccncc2)ccc1Cl`, for which the GI50 was 0.945 µM and the TGI is greater than 50 µM.
The molecule `Nc1nc(N)c(N=Nc2ccc([As](=O)(O)O)cc2)c(=O)[nH]1` had a TGI greater than 100 µM.
In the case of `CCOC(=O)C(=Cc1cccc(Cl)c1)C(=O)OCC`, the GI50 is 2.12 µM and the TGI came to 8.11 µM.
In the case of `C=CC(=O)N1CCC(C2CCNc3c(C(N)=O)c(-c4ccc(Oc5ccccc5)cc4)nn32)CC1` (stereo not drawn), the GI50 was 12.3 µM and the TGI was found to be 59.4 µM.
In the same order, the values of `CCCCCCNC(=O)c1nc(-c2ccccc2)oc1Cc1ccc(OP(=O)(O)O)cc1` are 15.3 µM and 29.9 µM.
With `Cc1ccc(/C=C/c2c(C(=O)/C=C/c3ccc(C(F)(F)F)cc3)c(C)nc3ccccc23)cc1`, the GI50 was 0.557 µM and the TGI turned out to be 2.3 µM.
Regarding `CCCn1c(N)c(C(=O)N/N=C(/C)c2cc3cccc(OC)c3o2)sc1=S`, the GI50 is 28 µM and the TGI was greater than 100 µM.
With `C=CCc1cccc(/C=N/NC(=O)CN2CCN(Cc3ccccc3)CC2)c1O`, the GI50 was 2.52 µM and the TGI turned out to be 12.5 µM.

The values are drawn from PubChem BioAssay (NCI).
